Key:
[1] = target: CXCR1 receptor (Homo sapiens (Human), UniProt P25024); assay: β-arrestin recruitment test, U2OS hCXCR1 β-arrestin cells stimulated with CXCL8; assay type: cell-based; settings: inhibition of CXCL8 (10 nM) induced β-arrestin 2 recruitment; *9999 signifies not active
Method: (§1) The in vitro affinity of the compounds of the present invention for the CXCR1 and CXCR2 receptors was determined on a functional test of the β-arrestin recruitment after receptor activation type.
(§2) β-Arrestin recruitment test: “PathHunter HEK293-CXCR2” or “U2OS hCXCR1 β-arrestin” cells (DiscoveRx Corporation) were seeded overnight at 10 000 cells/well (384-well format) in 20 μl of Opti MEM I medium. A preincubation with the antagonist or the vehicle for 30 min at 37° C. and 5% CO2 was followed by 60 minutes of stimulation with CXCL8 at 37° C. and 5% CO2. The cells were then placed at ambient temperature for 30 minutes. The PathHunter detection reagent (DiscoveRx Corporation) was added. […] The data were analyzed by means of a non-linear curve procedure using the XLFit4 exploitation software (IDBS) and the IC50 values were determined.

[2] = target: CXCR2 receptor (Homo sapiens (Human), UniProt P25025); assay: β-arrestin recruitment test, PathHunter HEK293-CXCR2 cells stimulated with CXCL8; assay type: cell-based; settings: inhibition of CXCL8 (10 nM) induced β-arrestin 2 recruitment; *9999 signifies not active
Method: as §1, §2

[3] = Metabolic stabilities in hepatocytes; assay type: in vitro ADME; settings: compound 1 μM, sampling up to 24 hours; for Half-life time: human hepatocytes; for half-life at 1 μM: human, hepatocytes, read-out: Half-life time
Method: The human hepatocytes were supplied by Biopredic in 24-well plates.
The samples of incubation medium after addition of the test compound were taken at times t=0, 1, 2, 4, 6 and 24 hours.

[4] = Metabolic stabilities in hepatic microsomes; settings: hepatic microsomes 0.5 mg/ml protein, compound 1 μM, sampling up to 60 minutes
Method: Hepatic microsomes (Becton Dickinson) were incubated at a protein concentration of 0.5 mg/ml in the reaction medium.
The reaction medium of the microsomes was composed of phosphate buffer, pH: 7.4 at 100 mM, of MgCl2 at 100 mM (50/50), of an ATP-generating system composed of a mixture of nicotinamide adenine diphosphate (NADP), of glucose-6-phosphate (G6P) at 1 mg/ml and of glucose-6-phosphate dehydrogenase (G6PDH) at 4 U/ml. The compounds were tested at 1 μM (0.1% DMSO).
The samples of incubation medium after addition of the microsomes were taken at times 5, 10, 15, 30 and 60 minutes. At each time, the metabolic reaction was stopped by adding methanol (1 volume incubation medium/3 volumes of methanol). The disappearance of the parent product was measured by LC/MS/MS analysis. The time for which 50% of parent product disappeared (T1/2) was calculated from the kinetics of disappearance of the parent product as a function of time.

[5] = target: CXCR3 (Homo sapiens (Human), UniProt P49682); assay: Calcium flux on Chem-1 cells expressing the chemokine receptor (FLIPR TETRA), antagonist mode; settings: IC50 CXCR3, antagonist activity, reference agonist at AC80
Method: (§3) Measurement of calcium flux on cells: The experiments were carried out on the FLIPR TETRA® platform from Molecular Devices.
(§4) Each cell line expressing a chemokine receptor was established on the basis of the Chem-1 cell stably expressing the recombinant form of the chemokine receptor and also an associated G protein, with the aim of coupling the receptor to the calcium signalling pathway.
(§5) 21 receptors belonging to the chemokine receptor family (CCRs and CXCRs) were analyzed.

[6] = target: CCR4 (Homo sapiens (Human), UniProt P51679); assay: as above
Chain of CCR4 (P51679 whole entry): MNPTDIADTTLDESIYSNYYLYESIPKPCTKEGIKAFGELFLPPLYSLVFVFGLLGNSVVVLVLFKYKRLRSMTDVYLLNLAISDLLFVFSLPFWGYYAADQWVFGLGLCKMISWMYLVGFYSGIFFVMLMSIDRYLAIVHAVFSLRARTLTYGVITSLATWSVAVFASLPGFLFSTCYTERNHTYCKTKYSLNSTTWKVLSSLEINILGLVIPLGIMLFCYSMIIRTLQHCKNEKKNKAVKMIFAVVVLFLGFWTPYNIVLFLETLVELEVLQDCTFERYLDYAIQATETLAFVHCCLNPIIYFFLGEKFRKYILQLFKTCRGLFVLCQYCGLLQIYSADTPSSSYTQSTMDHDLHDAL
Method: as §3, §4, §5

Chain of CXCR3 (P49682 whole entry): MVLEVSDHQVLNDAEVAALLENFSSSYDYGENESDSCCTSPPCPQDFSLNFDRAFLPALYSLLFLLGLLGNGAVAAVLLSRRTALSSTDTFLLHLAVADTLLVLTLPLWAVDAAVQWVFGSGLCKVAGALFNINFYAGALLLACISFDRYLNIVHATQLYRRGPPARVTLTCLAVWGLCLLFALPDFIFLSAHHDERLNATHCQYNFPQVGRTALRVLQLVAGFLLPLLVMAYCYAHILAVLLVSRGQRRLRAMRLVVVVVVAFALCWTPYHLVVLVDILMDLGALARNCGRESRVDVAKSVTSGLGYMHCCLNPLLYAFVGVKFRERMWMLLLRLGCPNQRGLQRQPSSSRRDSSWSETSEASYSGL
Chain of CXCR1 receptor (P25024 whole entry): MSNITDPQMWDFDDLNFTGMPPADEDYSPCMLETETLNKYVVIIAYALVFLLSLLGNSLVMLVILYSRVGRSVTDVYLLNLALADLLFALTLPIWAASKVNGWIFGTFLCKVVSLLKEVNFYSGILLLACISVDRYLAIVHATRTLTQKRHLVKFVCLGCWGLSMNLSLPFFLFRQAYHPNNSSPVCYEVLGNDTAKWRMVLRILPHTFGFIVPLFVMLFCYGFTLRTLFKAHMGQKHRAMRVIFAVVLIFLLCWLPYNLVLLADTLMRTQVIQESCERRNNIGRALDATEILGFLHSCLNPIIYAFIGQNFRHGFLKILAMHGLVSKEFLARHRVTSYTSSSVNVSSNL
Chain of CXCR2 receptor (P25025 whole entry): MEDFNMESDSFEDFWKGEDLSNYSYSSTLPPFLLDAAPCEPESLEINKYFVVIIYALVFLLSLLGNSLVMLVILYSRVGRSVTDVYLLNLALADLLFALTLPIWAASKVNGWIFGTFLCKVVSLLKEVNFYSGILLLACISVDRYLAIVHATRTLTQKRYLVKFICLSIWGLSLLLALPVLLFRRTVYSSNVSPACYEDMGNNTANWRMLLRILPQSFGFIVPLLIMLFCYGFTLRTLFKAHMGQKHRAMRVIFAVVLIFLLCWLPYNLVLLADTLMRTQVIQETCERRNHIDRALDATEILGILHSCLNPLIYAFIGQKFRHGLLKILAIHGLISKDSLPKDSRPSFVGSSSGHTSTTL

Compound	IC50 [1] [nM]	IC50 [2] [nM]	further results
COC(=O)CN(C)C(=O)c1cccc(Nc2c(NC(c3ccc(C)o3)C3CCCS3)c(=O)c2=O)c1O (single isomer, unassigned) [9 (Diastereoisomer 1), methyl {[2-hydroxy-3-(2-{[(5-methylfuran-2-yl)-(tetrahydrothiophen-2-yl)methyl]amino}-3,4-dioxocyclobut-1-enylamino)benzoyl]methylamino}acetate]	580	153	–
Cc1ccc(C(Nc2c(Nc3cccc(C(=O)N(C)C)c3O)c(=O)c2=O)C2(C)CCCO2)o1 (single isomer, unassigned) [Example 1 (Enantiomer 1 of diastereoisomer 2), 2-Hydroxy-N,N-dimethyl-3-(2-{[(5-methylfuran-2-yl)-(2-methyltetrahydrofuran-2-yl)methyl]amino}-3,4-dioxo-cyclobut-1-enylamino)benzamide]	–	10000	–
Cc1ccc(C(Nc2c(Nc3cccc(C(=O)N(C)C)c3O)c(=O)c2=O)C2(C)CCCO2)o1 (single isomer, unassigned) [Example 1 (diastereoisomer 1), 2-hydroxy-N,N-dimethyl-3-(2-{[(5-methylfuran-2-yl)-(2-methyltetrahydrofuran-2-yl)methyl]amino}-3,4-dioxocyclobut-1-enylamino)benzamide]	–	89	–
Cc1ccc(C(Nc2c(Nc3cccc(C(=O)N(C)C)c3O)c(=O)c2=O)C2CCCS2)o1 (single isomer, unassigned) [Example 2 (Enantiomer 1 of diastereoisomer 1), 2-Hydroxy-N,N-dimethyl-3-(2-{[(5-methylfuran-2-yl)-(tetrahydrothiophen-2-yl)methyl]amino}-3,4-dioxo-cyclobut-1-enylamino)benzamide]	–	273	–
Cc1ccc(C(Nc2c(Nc3cccc(C(=O)N(C)C)c3O)c(=O)c2=O)C2CCCS2)o1 (single isomer, unassigned) [Example 2 (Enantiomer 1 of diastereoisomer 2), 2-Hydroxy-N,N-dimethyl-3-(2-{[(5-methylfuran-2-yl)-(tetrahydrothiophen-2-yl)methyl]amino}-3,4-dioxo-cyclobut-1-enylamino)benzamide]	–	15	Half-life time [3]: 213 min
Cc1ccc(C(Nc2c(Nc3cccc(C(=O)N(C)C)c3O)c(=O)c2=O)C2CCCS2)o1 (single isomer, unassigned) [Example 2 (Enantiomer 2 of diastereoisomer 1), 2-Hydroxy-N,N-dimethyl-3-(2-{[(5-methylfuran-2-yl)-(tetrahydrothiophen-2-yl)methyl]amino}-3,4-dioxo-cyclobut-1-enylamino)benzamide]	–	56	–
Cc1ccc(C(Nc2c(Nc3cccc(C(=O)N(C)C)c3O)c(=O)c2=O)C2CCCS2)o1 (single isomer, unassigned) [Example 2 (Enantiomer 2 of diastereoisomer 2), 2-Hydroxy-N,N-dimethyl-3-(2-{[(5-methylfuran-2-yl)-(tetrahydrothiophen-2-yl)methyl]amino}-3,4-dioxo-cyclobut-1-enylamino)benzamide]	–	134	Half-life time [3]: 229 min
Cc1ccc(C(Nc2c(Nc3cccc(C(=O)N(C)C)c3O)c(=O)c2=O)C2CCCS2)o1 (single isomer, unassigned) [Example 2 (diastereoisomer 1), 2-Hydroxy-N,N-dimethyl-3-(2-{[(5-methylfuran-2-yl)-(tetrahydrothiophen-2-yl)methyl]amino}-3,4-dioxo-cyclobut-1-enylamino)benzamide]	–	135	Half-life time [3]: 106 min; Half-life time [4]: 9 min
COC(=O)[C@H]1CCCN1C(=O)c1cccc(Nc2c(NC(c3ccc(C)o3)C3CCCS3)c(=O)c2=O)c1O (single isomer, unassigned) [Example 6]	–	–	IC50 [5]: 140 nM; Half-life time [4]: 5 min
Cc1ccc(C(Nc2c(Nc3cccc(C(=O)N(C)CC(F)(F)F)c3O)c(=O)c2=O)C2CCCS2)o1 (single isomer, unassigned) [Example 8 (Diastereoisomer 1)]	508	115	–
Cc1ccc(C(Nc2c(Nc3cccc(C(=O)N(C)CC(F)(F)F)c3O)c(=O)c2=O)C2CCCS2)o1 (single isomer, unassigned) [Example 8 (Diastereoisomer 2)]	85	47	–
COC(=O)CN(C)C(=O)c1cccc(Nc2c(NC(c3ccc(C)o3)C3CCCS3)c(=O)c2=O)c1O (single isomer, unassigned) [Example 9 (Diastereoisomer 2), methyl {[2-hydroxy-3-(2-{[(5-methylfuran-2-yl)-(tetrahydrothiophen-2-yl)methyl]amino}-3,4-dioxocyclobut-1-enylamino)benzoyl]methylamino}acetate]	89	80	–
Cc1ccc(C(Nc2c(Nc3cccc(C(=O)N(C)C)c3O)c(=O)c2=O)[C@@H]2COC(C)(C)O2)o1 (single isomer, unassigned) [Example 14 (Diastereoisomer 1)]	10000	10000	–
Cc1ccc(C(Nc2c(Nc3cccc(C(=O)N(C)C)c3O)c(=O)c2=O)[C@@H]2COC(C)(C)O2)o1 (single isomer, unassigned) [Example 14 (Diastereoisomer 2)]	10000	1250	–
COC(=O)[C@H]1CCCN1C(=O)c1cccc(Nc2c(NC(c3ccc(C)o3)C3CCCS3)c(=O)c2=O)c1O (single isomer, unassigned) [Example 20]	–	–	half-life at 1 μM [3]: 211 min; IC50 [5]: 180 nM; Half-life time [4]: 17 min; IC50 [6]: 7.2 nM
Cc1ccc([C@H](Nc2c(Nc3cccc(C(=O)N(C)CC(F)(F)F)c3O)c(=O)c2=O)C2CCCS2)o1 (single isomer, unassigned; (-)) [Example 18]	36	15	half-life at 1 μM [3]: 82 min; IC50 [5]: 450 nM; half-life at 1 μM ([4]; hepatic microsomes, pH 7.4, Half-life time (min)): 15 min; IC50 [6]: 97 nM
Cc1ccc(C(Nc2c(Nc3cccc(C(=O)N(C)C)c3O)c(=O)c2=O)[C@H]2CCCO2)o1 (stereo in doubt) [Example 11, 2-hydroxy-N,N-dimethyl-3-(2-{[(R)-(5-methylfuran-2-yl)tetrahydrofuran-2-ylmethyl]amino}-3,4-dioxocyclobut-1-enylamino)benzamide]	1320	176	–
Cc1ccc(C(Nc2c(Nc3cccc(C(=O)N(C)C)c3O)c(=O)c2=O)[C@@H]2CCCO2)o1 (stereo in doubt) [Example 12, 2-hydroxy-N,N-dimethyl-3-(2-{[(S)-(5-methylfuran-2-yl)tetrahydrofuran-2-ylmethyl]amino}-3,4-dioxocyclobut-1-enylamino)benzamide]	483	83	–
Cc1ccc(C(Nc2c(Nc3cccc(C(=O)N4CCC[C@H]4C(=O)OC(C)C)c3F)c(=O)c2=O)C2CCCS2)o1 (stereo partly drawn) [Example 4, Isopropyl (S)-1-[2-fluoro-3-(2-{[(5-methylfuran-2-yl)-(tetrahydrothiophen-2-yl)methyl]amino}-3,4-dioxocyclobut-1-enylamino)benzoyl]pyrrolidine-2-carboxylate]	1890	109	–
CCOC(=O)[C@@H]1CCCN1C(=O)c1cccc(Nc2c(NC(c3ccc(C)o3)C3CCCS3)c(=O)c2=O)c1F (stereo partly drawn) [Example 5, Ethyl (S)-1-[2-fluoro-3-(2-{[(5-methylfuran-2-yl)-(tetrahydrothiophen-2-yl)methyl]amino}-3,4-dioxocyclobut-1-enylamino)benzoyl]pyrrolidine-2-carboxylate]	711	106	–
CN(C)C(=O)c1cccc(Nc2c(NC(c3ccccc3)C3CCCO3)c(=O)c2=O)c1O (stereo not drawn) [Example 13, 3-(3,4-dioxo-2-{[phenyl(tetrahydrofuran-2-yl)methyl]amino}cyclobut-1-enylamino)-2-hydroxy-N,N-dimethylbenzamide]	1150	170	–
Cc1ccc(C(Nc2c(Nc3cccn(C)c3=O)c(=O)c2=O)C2CCCS2)o1 (stereo not drawn) [Example 17, 3-{[(5-methylfuran-2-yl)-(tetrahydrothiophen-2-yl)methyl]amino}-4-(1-methyl-2-oxo-1,2-dihydropyridin-3-ylamino)cyclobut-3-ene-1,2-dione]	384	44	–
Methyl (S)-1[2-fluoro-3-(2-{[(R,S)-(5-methylfuran-2-yl)((S,R)-tetrahydrothiophen-2-yl)methyl]amino}-3,4-dioxocyclobut-1-enylamino)benzoyl]pyrrolidine-2-carboxylate [Example 3 (pair of enantiomers 1 and 2)]	812	221	Half-life time [3]: 141 min; Half-life time [4]: 3 min

Source: US9388149B2, “Disubstituted 3,4-diamino-3-cyclobutene-1,2-dione compounds for use in the treatment of chemokine-mediated diseases” (GALDERMA RESEARCH & DEVELOPMENT, priority 2011, dated 2016)
